Test results from patent publication US20060205641A1, “[…]4 polypeptides and […]4 polynucleotides” (SmithKline Beecham plc, priority 1999, published 2006).

Experiments:
Assay type in all cases: cell-based
[1] = biological target: T1, hVR4 (Homo sapiens, UniProt Q9HBA0); test: FLIPR intracellular calcium assay, HEK293 cells transiently expressing hVR4 ([…]4); settings: for pEC50 hVR4: HEK293 cells transiently expressing hVR4, Fluo-3 calcium, FLIPR, mean ± s.e.mean, n = 3-5, IA = inactive; for effect on intracellular calcium in HEK293-hVR4 cells: result in words
T1 construct: expressed in transfected cells; host or cells: HEK293 (transient expression)
Experimental: HEK293 cells transiently expressing hVR1 or hVR4 were seeded into FLIPR96 plates at 25,000 cells/well and cultured overnight. The cells were then loaded in medium containing 4 microM Fluo-3 for 2 hrs, at room temperature, in the dark. The cell plates were then washed 4× with Tyrode containing 1.5 mM calcium and 0.2% BSA. Agonist and antagonist plates were prepared in the same buffer. Cells were preincubated with either antagonist or buffer at room temperature for 30 mins. Agonists additions and calcium measurements were made in the FLIPR (Smart et al., (2000) Br J. Pharmacol. 129, 227-230).

[2] = biological target: T2, hVR1 (Homo sapiens, UniProt Q8NER1); settings: for activity at VR1: result in words; for pEC50 hVR1: HEK293 cells transiently expressing hVR1, Fluo-3 calcium, FLIPR, mean ± s.e.mean, n = 3-5, IA = inactive
T2 construct: expressed in transfected cells; host or cells: HEK293 (transient expression)

[3] = tested on: HEK293 cells transfected with empty vector; test: FLIPR intracellular calcium assay, HEK293 cells transfected with empty vector; settings: result in words
[4] = tested on: wild type HEK293 cells; test: FLIPR intracellular calcium assay, wild type HEK293 cells; settings: result in words

T2 sequence (Q8NER1 whole entry): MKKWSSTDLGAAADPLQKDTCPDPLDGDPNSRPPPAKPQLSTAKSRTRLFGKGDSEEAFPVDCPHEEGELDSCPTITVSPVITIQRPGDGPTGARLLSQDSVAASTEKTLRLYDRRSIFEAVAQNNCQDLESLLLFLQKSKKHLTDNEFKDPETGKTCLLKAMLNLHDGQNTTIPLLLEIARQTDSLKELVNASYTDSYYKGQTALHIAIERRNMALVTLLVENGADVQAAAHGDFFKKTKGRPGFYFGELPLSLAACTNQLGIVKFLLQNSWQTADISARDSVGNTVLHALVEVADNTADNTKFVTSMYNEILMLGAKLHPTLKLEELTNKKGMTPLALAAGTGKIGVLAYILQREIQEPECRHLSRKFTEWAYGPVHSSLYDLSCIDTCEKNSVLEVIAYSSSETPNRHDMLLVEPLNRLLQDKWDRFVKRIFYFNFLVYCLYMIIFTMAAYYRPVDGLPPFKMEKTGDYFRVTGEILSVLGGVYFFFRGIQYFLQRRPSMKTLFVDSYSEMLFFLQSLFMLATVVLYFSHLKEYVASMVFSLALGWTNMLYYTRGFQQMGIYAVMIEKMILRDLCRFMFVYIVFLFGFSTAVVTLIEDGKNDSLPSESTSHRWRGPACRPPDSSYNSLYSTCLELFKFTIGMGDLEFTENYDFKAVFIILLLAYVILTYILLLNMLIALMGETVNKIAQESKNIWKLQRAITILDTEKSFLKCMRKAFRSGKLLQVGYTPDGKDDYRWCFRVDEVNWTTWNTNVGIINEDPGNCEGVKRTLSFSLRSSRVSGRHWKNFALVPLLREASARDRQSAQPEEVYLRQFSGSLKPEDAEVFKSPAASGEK
T1 sequence (Q9HBA0 whole entry): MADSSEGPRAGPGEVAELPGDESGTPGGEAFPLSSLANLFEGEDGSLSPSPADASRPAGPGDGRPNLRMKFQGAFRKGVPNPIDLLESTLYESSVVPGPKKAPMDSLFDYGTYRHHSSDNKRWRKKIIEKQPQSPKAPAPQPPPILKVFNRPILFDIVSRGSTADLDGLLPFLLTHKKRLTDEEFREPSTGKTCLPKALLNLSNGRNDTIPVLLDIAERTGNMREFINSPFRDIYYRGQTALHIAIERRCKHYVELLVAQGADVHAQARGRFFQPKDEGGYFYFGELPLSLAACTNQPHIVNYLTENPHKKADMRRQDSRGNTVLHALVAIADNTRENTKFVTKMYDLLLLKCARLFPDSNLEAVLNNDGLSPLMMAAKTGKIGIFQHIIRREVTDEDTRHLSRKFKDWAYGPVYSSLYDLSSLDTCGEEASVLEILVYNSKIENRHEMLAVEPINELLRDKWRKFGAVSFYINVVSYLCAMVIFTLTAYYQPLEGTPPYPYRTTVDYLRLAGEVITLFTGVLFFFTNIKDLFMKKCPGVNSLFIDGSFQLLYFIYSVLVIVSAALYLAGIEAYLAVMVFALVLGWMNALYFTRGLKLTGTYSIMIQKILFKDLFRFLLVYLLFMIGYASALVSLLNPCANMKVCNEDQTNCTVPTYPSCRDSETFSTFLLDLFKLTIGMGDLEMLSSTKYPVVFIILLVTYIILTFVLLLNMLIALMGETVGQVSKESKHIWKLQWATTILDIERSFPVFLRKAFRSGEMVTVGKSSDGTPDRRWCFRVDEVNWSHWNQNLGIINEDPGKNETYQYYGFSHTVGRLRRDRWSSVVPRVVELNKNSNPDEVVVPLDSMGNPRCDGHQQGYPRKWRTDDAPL

SMILES	pEC50 hVR4 [1]	selectivity (conclusion) ([1]; VR4 versus VR1, result in words)	effect on intracellular calcium in HEK293-hVR4 cells [1]	activity at VR1 [2]	effect on intracellular calcium in cells transfected with empty vector [3]	effect on intracellular calcium in wild type HEK293 cells [4]	pEC50 hVR1 [2]	Emax ([2]; at VR1, compared to capsaicin and RTX)
CCCCCCCCCC(=O)O[C@@H]1[C@@H](C)[C@@]2(O)[C@@H](C=C(CO)C[C@@]3(O)C(=O)C(C)=C[C@@H]23)[C@@H]2C(C)(C)[C@]12OC(=O)CCCCCCCCC [4αPDD, 4α-phorbol-12,13-didecanoate]	5.73 ± 0.06	In conclusion, 4αPDD acts as a VR4 selective agonist.	increased intracellular calcium	inactive	without effect	without effect		
CCCCCCCCCCCCCC(=O)O[C@@H]1[C@@H](C)[C@@]2(O)[C@@H](C=C(CO)C[C@]3(O)C(=O)C(C)=C[C@@H]23)[C@@H]2C(C)(C)[C@]12OC(C)=O [PMA, phorbol 12-myristate 13-acetate]	6.64 ± 0.06		increased intracellular calcium	partial agonist	without effect	without effect	7.86 ± 0.06	0.46
C=C(C)[C@]12C[C@@H](C)[C@@]34O[C@](Cc5ccccc5)(O[C@@H]1[C@@H]3C=C(COC(=O)Cc1ccc(O)c(OC)c1)C[C@]1(O)C(=O)C(C)=C[C@@H]41)O2 [RTX]							8.93 ± 0.20	
